These results are taken from US10800741B2 (ANCUREALL PHARMACEUTICAL (SHANGHAI) CO., LTD., priority 2017, dated 2020).

Each structure is given as a SMILES string.

Format in all cases: cell-based, Human
One assay deals with Kasumi-1 (KIT N822K). Description: In vitro growth inhibition of Kasumi-1 tumor cells (MTT/CCK8). The following applies: Homo sapiens, Kasumi 1; in vitro growth inhibition (or induction of apoptosis), cells cultured 3 to 5 days, MTT (CCK8); read-out: IC50 Kasumi-1 (KIT N822K).
The test system of another assay is H1581 (FGFR1 amp). Description: In vitro growth inhibition of H1581 tumor cells (MTT/CCK8). The following applies: Homo sapiens, NCI-H1581; in vitro growth inhibition (or induction of apoptosis), cells cultured 3 to 5 days, MTT (CCK8); read-out: IC50 H1581 (FGFR1 amp).
The test system of another assay is Hep3B2 (FGFR3/4+++). Description: In vitro growth inhibition of Hep3B2 tumor cells (MTT/CCK8). To be noted: Homo sapiens, Hep3B; in vitro growth inhibition (or induction of apoptosis), cells cultured 3 to 5 days, MTT (CCK8); read-out: IC50 Hep3B2 (FGFR3/4+++).
For a further assay, the system named is KCL-22 (BCR-ABL). Description: In vitro growth inhibition of KCL-22 tumor cells (MTT/CCK8). The following applies: Homo sapiens, KCL-22; in vitro growth inhibition (or induction of apoptosis), cells cultured 3 to 5 days, MTT (CCK8); read-out: IC50 KCL-22 (BCR-ABL).
Another assay relates to H1703 (PDGFRa amp). Description: In vitro growth inhibition of H1703 tumor cells (MTT/CCK8). The following applies: Homo sapiens, NCI-H1703; in vitro growth inhibition (or induction of apoptosis), cells cultured 3 to 5 days, MTT (CCK8); read-out: IC50 H1703 (PDGFRa amp).
Another assay deals with Karpas 299 (NPM-ALK). The assay is described as follows: In vitro growth inhibition of Karpas 299 tumor cells (MTT/CCK8). To be noted: Homo sapiens, KARPAS-299; in vitro growth inhibition (or induction of apoptosis), cells cultured 3 to 5 days, MTT (CCK8); read-out: IC50 Karpas 299 (NPM-ALK).
A further assay deals with MOLM-13 (FLT3-ITD). The assay is described as follows: In vitro growth inhibition of MOLM-13 tumor cells (MTT/CCK8). To be noted: Homo sapiens, MOLM-13; in vitro growth inhibition (or induction of apoptosis), cells cultured 3 to 5 days, MTT (CCK8); read-out: IC50 MOLM-13 (FLT3-ITD).
The test system of a further assay is KATO III (FGFR2 amp). Description: In vitro growth inhibition of KATO III tumor cells (MTT/CCK8). The following applies: Homo sapiens, KATO III; in vitro growth inhibition (or induction of apoptosis), cells cultured 3 to 5 days, MTT (CCK8); read-out: IC50 KATO III (FGFR2 amp).

Turning to `COc1cc(Oc2ccnc3cc(OC)c(C(N)=O)cc23)ccc1NC(=O)Nc1cc(C(C)(C)C)on1` [Compound 5, 4-{4-[3-(5-tert-butyl-isoxazol-3-yl)-ureido]-3-methoxy-phenoxy}-7-methoxyquinolin-6-carboxamide], the IC50 is 12.9 nM in the assay with Kasumi-1 (KIT N822K); 65.3 nM in the assay on H1581 (FGFR1 amp); 156 nM in the assay with Hep3B2 (FGFR3/4+++); 2.15 nM with KCL-22 (BCR-ABL); 18.8 nM in the assay on H1703 (PDGFRa amp); more than 1000 nM with Karpas 299 (NPM-ALK). For the same compound, the figures for the IC50 with MOLM-13 (FLT3-ITD) and in the assay on KATO III (FGFR2 amp) were 4.26 nM and 9.76 nM, respectively.

For the compound `CNC(=O)c1cc2c(Oc3ccc(NC(=O)Nc4cc(C(C)(C)C)n[nH]4)c(C(F)(F)F)c3)ccnc2cc1OC` [Compound 51, 4-{4-[3-(5-tert-butyl-2H-pyrazol-3-yl)-ureido]-3-trifluoromethyl-phenoxy}-7-methoxyquinolin-6-carboxylic acid methylamide], the IC50 in the assay on Kasumi-1 (KIT N822K) amounted to 12.7 nM; with H1581 (FGFR1 amp), 51.4 nM; in the assay on Hep3B2 (FGFR3/4+++), 88 nM; with KCL-22 (BCR-ABL) it was 13 nM; with H1703 (PDGFRa amp), 48.4 nM; in the assay on Karpas 299 (NPM-ALK) it was 493 nM. Further, the IC50 amounted to 142 nM with MOLM-13 (FLT3-ITD) and 1.14 nM with KATO III (FGFR2 amp).

For the compound `COCCNC(=O)c1cc2c(Oc3ccc(NC(=O)Nc4cc(C(C)(C)C)on4)c(Cl)c3)ccnc2cc1OC` [Compound 17, 4-{4-[3-(5-tert-butyl-isoxazol-3-yl)-ureido]-3-chloro-phenoxy}-7-methoxyquinolin-6-carboxylic acid (2-methoxy-ethyl)-amide], the IC50 amounted to 71.4 nM in the assay with Kasumi-1 (KIT N822K); 31.4 nM in the assay on H1581 (FGFR1 amp); 84.9 nM in the assay with Hep3B2 (FGFR3/4+++); 23.1 nM in the assay with KCL-22 (BCR-ABL); 168 nM with H1703 (PDGFRa amp); 770 nM with Karpas 299 (NPM-ALK). Moreover, the IC50 in the assay on MOLM-13 (FLT3-ITD) was found to be 7.72 nM; in the assay on KATO III (FGFR2 amp), 3.9 nM.

Regarding `CC(C)(C)c1cc(NC(=O)Nc2ccc(Oc3ccnc4cc(O)c(C(N)=O)cc34)c(Cl)c2Cl)[nH]n1` [Compound 92, 4-{4-[3-(5-tert-butyl-2H-pyrazol-3-yl)-ureido]-2,3-dichloro-phenoxy}-7-hydroxy-quinolin-6-carboxamide], the IC50 in the assay with Kasumi-1 (KIT N822K) was 182 nM; in the assay on H1581 (FGFR1 amp), 146 nM; in the assay with Hep3B2 (FGFR3/4+++), 232 nM; in the assay with KCL-22 (BCR-ABL), 67.5 nM; in the assay with H1703 (PDGFRa amp), 453 nM; in the assay on Karpas 299 (NPM-ALK), 749 nM. The values for the IC50 in the assay with MOLM-13 (FLT3-ITD) and with KATO III (FGFR2 amp) were 28.9 nM and 17.5 nM, respectively.

Turning to `COc1cc2nccc(Oc3ccc(NC(=O)Nc4cc(C(C)(C)C)n[nH]4)c(C(F)(F)F)c3)c2cc1C(N)=O` [Compound 33, 4-{4-[3-(5-tert-butyl-2H-pyrazol-3-yl)-ureido]-3-trifluoromethyl-phenoxy}-7-methoxyquinolin-6-carboxamide], the IC50 is 46.4 nM with Kasumi-1 (KIT N822K); 49.8 nM with H1581 (FGFR1 amp); 130 nM in the assay on Hep3B2 (FGFR3/4+++); 25.7 nM with KCL-22 (BCR-ABL); 73 nM in the assay on H1703 (PDGFRa amp); 632 nM in the assay with Karpas 299 (NPM-ALK). Besides, the IC50 worked out at 28.1 nM in the assay with MOLM-13 (FLT3-ITD) and 0.71 nM with KATO III (FGFR2 amp).

In the case of `CN1CCN(CCCOc2cc3nccc(Oc4ccc(NC(=O)Nc5cc(C(C)(C)C)n[nH]5)c(Cl)c4)c3cc2C(N)=O)CC1` [Compound 82, 4-{4-[3-(5-tert-butyl-2H-pyrazol-3-yl)-ureido]-3-chloro-phenoxy}-7-[3-(4-methyl-piperazin-1-yl)-propoxy]-quinolin-6-carboxamide], the IC50 in the assay with Kasumi-1 (KIT N822K) came to 5.21 nM; with H1581 (FGFR1 amp), 3.61 nM; in the assay with Hep3B2 (FGFR3/4+++) it was 23.9 nM; in the assay on KCL-22 (BCR-ABL), 20.6 nM; in the assay on H1703 (PDGFRa amp), 9.43 nM; with Karpas 299 (NPM-ALK), 174 nM. In addition, the IC50 in the assay with MOLM-13 (FLT3-ITD) is 1.7 nM; in the assay with KATO III (FGFR2 amp) it was 2.94 nM.

Regarding `CCC(=O)Nc1cc2c(Oc3ccc(NC(=O)Nc4cc(C(C)(C)C)n[nH]4)c(Cl)c3)ccnc2cc1OC` [Compound 64, N-(4-{4-[3-(5-tert-butyl-2H-pyrazol-3-yl)-ureido]-3-chloro-phenoxy}-7-methoxyquinolin-6-yl)-propionamide], the IC50 in the assay with Kasumi-1 (KIT N822K) was 34.2 nM; with H1581 (FGFR1 amp) it was 8.64 nM; in the assay with Hep3B2 (FGFR3/4+++) it was 19 nM; with KCL-22 (BCR-ABL), 17.4 nM; with H1703 (PDGFRa amp) it was 13.1 nM; with Karpas 299 (NPM-ALK), 186 nM. Moreover, the IC50 is 8.78 nM in the assay with MOLM-13 (FLT3-ITD) and 0.63 nM in the assay on KATO III (FGFR2 amp).

Regarding `CNC(=O)c1cc2c(Oc3ccc(NC(=O)Nc4cc(C(C)(C)C)nn4C)cc3C)ccnc2cc1OC` [Compound 53, 4-{4-[3-(5-tert-butyl-2-methyl-2H-pyrazol-3-yl)-ureido]-2-methyl-phenoxy}-7-methoxy quinolin-6-carboxylate acid methylamide], the IC50 in the assay on Kasumi-1 (KIT N822K) came out at 17.7 nM; in the assay on H1581 (FGFR1 amp) it was 218 nM; with Hep3B2 (FGFR3/4+++), 344 nM; in the assay with KCL-22 (BCR-ABL), 28.6 nM; with H1703 (PDGFRa amp), 64 nM; in the assay on Karpas 299 (NPM-ALK), 302 nM. Also, the IC50 was 1.12 nM in the assay with MOLM-13 (FLT3-ITD) and 6.81 nM in the assay with KATO III (FGFR2 amp).

Turning to `COc1cc2nccc(Oc3ccc(NC(=O)Nc4cc(C(C)(C)C)nn4C)c(C)c3C)c2cc1C(N)=O` [Compound 110, 4-{4-[3-(5-tert-butyl-2-methyl-2H-pyrazol-3-yl)-ureido]-2,3-dimethyl-phenoxy}-7-methoxy-quinolin-6-carboxamide], the IC50 was 0.41 nM with Kasumi-1 (KIT N822K); 8.36 nM with H1581 (FGFR1 amp); 83.8 nM in the assay with Hep3B2 (FGFR3/4+++); 3.21 nM in the assay with KCL-22 (BCR-ABL); 46.1 nM in the assay with H1703 (PDGFRa amp); 508 nM in the assay with Karpas 299 (NPM-ALK). Further, the IC50 with MOLM-13 (FLT3-ITD) is 19.7 nM; in the assay with KATO III (FGFR2 amp), 2.98 nM.

Take `CCOc1cc2ncc(C#N)c(Oc3ccc(NC(=O)Nc4cc(C(C)(C)C)n[nH]4)c(Cl)c3)c2cc1NC(C)=O` [Compound 68, N-(4-{4-[3-(5-tert-butyl-2H-pyrazol-3-yl)-ureido]-3-chloro-phenoxy}-3-cyano-7-ethoxy-quinolin-6-yl) acetamide]: the IC50 in the assay with Kasumi-1 (KIT N822K), in the assay with H1581 (FGFR1 amp), in the assay on Hep3B2 (FGFR3/4+++), in the assay on KCL-22 (BCR-ABL), with H1703 (PDGFRa amp) and in the assay on Karpas 299 (NPM-ALK) was more than 1000 nM throughout. Besides, the IC50 in the assay with MOLM-13 (FLT3-ITD) and in the assay on KATO III (FGFR2 amp) was more than 1000 nM throughout.

As for `CNC(=O)c1cc2c(Oc3ccc(NC(=O)Nc4cc(C(C)(C)C)nn4C4CCCC4)c(Cl)c3)ccnc2cc1OC` [Compound 48, 4-{4-[3-(5-tert-butyl-2-cyclopentyl-2H-pyrazol-3-yl)-ureido]-3-chloro-phenoxy}-7-methoxyquinolin-6-carboxylic acid methylamide], the IC50 with Kasumi-1 (KIT N822K) was 35.7 nM; in the assay with H1581 (FGFR1 amp) it was 11.7 nM; in the assay on Hep3B2 (FGFR3/4+++) it was 44.1 nM; with KCL-22 (BCR-ABL), 22.3 nM; in the assay with H1703 (PDGFRa amp), 25.9 nM; in the assay on Karpas 299 (NPM-ALK), 502 nM. The IC50 with MOLM-13 (FLT3-ITD) stood at 11.6 nM; in the assay with KATO III (FGFR2 amp), 1.36 nM.

For the compound `CNC(=O)c1cc2c(Oc3ccc(NC(=O)N4CCCC4)c(Cl)c3Cl)ccnc2cc1OCCOC` [Compound 76, 4-{2,3-dichloro-4-[(pyrrolidin-1-carbonyl)-amino]-phenoxy}-7-(2-methoxy-ethoxy)-quinolin-6-carboxylic acid methylamide], the IC50 with Kasumi-1 (KIT N822K) was not below 1000 nM; in the assay on H1581 (FGFR1 amp) it was more than 1000 nM; in the assay with Hep3B2 (FGFR3/4+++), more than 1000 nM; in the assay on KCL-22 (BCR-ABL), more than 1000 nM; in the assay with H1703 (PDGFRa amp) it was 370 nM; in the assay with Karpas 299 (NPM-ALK), more than 1000 nM. Further, the IC50 in the assay with MOLM-13 (FLT3-ITD) was more than 1000 nM; in the assay on KATO III (FGFR2 amp), 363 nM.

With `COc1cc2nccc(Oc3ccc(NC(=O)Nc4cc(C(C)(C)C)n[nH]4)cc3C)c2cc1NC(C)=O` [Compound 103, N-(4-{4-[3-(5-tert-butyl-2H-pyrazol-3-yl)-ureido]-2-methyl-phenoxy}-7-methoxy-quinolin-6-yl)-acetamide], the IC50 with Kasumi-1 (KIT N822K) was 14.6 nM; with H1581 (FGFR1 amp) it was 24.2 nM; in the assay with Hep3B2 (FGFR3/4+++) it was 191 nM; in the assay on KCL-22 (BCR-ABL), 12.1 nM; with H1703 (PDGFRa amp), 86.7 nM; in the assay with Karpas 299 (NPM-ALK), 350 nM. The IC50 with MOLM-13 (FLT3-ITD) came out at 0.15 nM; with KATO III (FGFR2 amp), 4.17 nM.

Turning to `CNC(=O)c1cc2c(Oc3ccc(NC(=O)Nc4cc(C(C)(C)C)n[nH]4)c(Cl)c3Cl)ccnc2cc1OC` [Compound 56, 4-{4-[3-(5-tert-butyl-2H-pyrazol-3-yl)-ureido]-2,3-dichloro-phenoxy}-7-methoxyquinol in-6-carboxylic acid methylamide], the IC50 stood at 1.07 nM with Kasumi-1 (KIT N822K); 3.66 nM with H1581 (FGFR1 amp); 17.6 nM in the assay on Hep3B2 (FGFR3/4+++); 1.4 nM with KCL-22 (BCR-ABL); 18.9 nM in the assay with H1703 (PDGFRa amp); 39.2 nM in the assay with Karpas 299 (NPM-ALK). Further, the IC50 with MOLM-13 (FLT3-ITD) was 2.87 nM; in the assay on KATO III (FGFR2 amp), 0.28 nM.
